According to US20230404985A1, “METHODS OF TREATING TUMORS AND CANCERS HAVING DYSREGULATED WNT SIGNALING PATHWAYS” (ICAHN SCHOOL OF MEDICINE AT MOUNT SINAI, priority 2020, published 2023):

Legend:
[1] = tested on: receptor tyrosine kinases including KIT and VEGFR1/2; assay: NanoBRET live cell target engagement, receptor tyrosine kinases; type: cell-based; details: relative to sorafenib and regorafenib
[2] = tested on: AKS: APCKO::KRASG12D::SMAD4KO tumoroids; assay: TiterGlo viability of CRC tumoroids (AKS); type: cell-based, mouse
Experimental: (§1) FIGS. 13A-13E show results pertaining to colorectal cancer. […] Data are column/gene normalized on a 0-100 scale with 0 being the lowest expression level and 100 the highest. FIG. 13D show full dose-response analysis of WNTinib's effects on the indicated organoid and tumoroid lines; viability was quantified using the TiterGlo assay after 72 hours. WT intestinal organoids are used as a control. […] Images of the intestine are shown as an example.
(§2) First, an APC deletion (A) was introduced, then a KRAS^G12D overexpression (AK) in combination with a SMAD4^KO was introduced to affect the TGFbeta pathway (AKS). Last, P53 was deleted to mimic the latest stages of metastatic disease progression (AKSP).

[3] = tested on: wild type (WT) healthy intestinal organoids; assay: TiterGlo viability of wild type intestinal organoids; type: cell-based, mouse; details: 72 hours post treatment
Experimental: as §1, §2

AKSP tumoroids = assay: Full dose-response in CRC tumoroids (AKSP); type: cell-based, mouse; details: TiterGlo after 72 hours
Experimental: as §1
Next, a full dose-response of WNTinib in WildType normal organoids (WT), APC^KO (A), APC^KO KRAS^G12D/SMAD4^KO (AKS) and APC^KO KRAS^G12D/SMAD4^KO P53^KO (AKSP) tumoroids was performed. WNTinib has a lower IC50 in the aggressive metastatic AKSP tumoroids compared to their matched parental WT organoid line, providing thus a therapeutic window for the most advanced CRC models (FIG. 13D).

[4] = 14-day oral gavage tissue toxicity study; type: in vivo
[5] = tested on: immune cell tumor infiltration; assay: Immune cell profiling of tumors by spectral cytometry; type: in vivo, mouse; details: compared to vehicle or standard of care (sorafenib); six days after start of dosing
Experimental: FIGS. 14A-14G show results pertaining the use of WNTinib in combination with immunotherapy. […] C57/BL6 mice were randomized into treatment groups using IVIS imaging to quantify tumor size based on luminescence signal intensity. After randomization, kinase inhibitors were dissolved in 25% cremaphor:ethanol in water and administered orally (30 mg/kg sorafenib, 20 mg/kg WNTinib) beginning 7 days after injection following 5 days on/2 days off dosing schedule. Immunotherapy (anti-PD-1) was administered via intraperitoneal injection on days 11, 13, and 15 after injection at 200 μg. Log-rank p-values for survival in drug treatment groups to vehicle group and median survival are shown. Mice were assigned to different treatment groups as follows: vehicle (25), sorafenib (10), aPD-1 (15), WNTinib (25), and WNTinib+aPD-1 (25). […] Significant differences between groups indicated by asterisks. ** P<0.005, *** P<0.0005, as calculated with an ANOVA with Tukey test for multiple comparisons. Animals were dosed via daily oral gavage using 20 mg/kg of WNTinib and 30 mg/kg of sorafenib. […] 3 animals per indicated groups were assessed using spectral cytometry panels for both lymphocytes and myeloid cells. […]
Next, the effect of WNTinib on immune cell tumor infiltration was evaluated.

Structure (SMILES): CNC(=O)c1cc(Oc2ccc(NC(=O)Nc3ccc(C(F)(F)C(F)(F)F)cc3)c(F)c2)ccn1 [WNTinib, 4-(3-fluoro-4-(3-(4-(perfluoroethyl)phenyl)ureido)phenoxy)-N-methylpicolinamide]
- live cell target engagement IC50 on receptor tyrosine kinases [1]: retained a similar in vivo IC50
- viability of AKS CRC line ([2]; 72 hours post treatment): reduce the viability
- organoid morphology of AKS organoids ([2]; WNTinib 3 μM, 72 hrs): induce a reversal of organoid morphology
- viability of WT organoids [3]: without affecting that of WT organoids
- IC50 in AKSP tumoroids compared to parental WT organoid line (AKSP tumoroids): lower IC50
- pathological changes in brain, heart, esophagus, large intestine ([4]; 60 mg/kg and 120 mg/kg oral gavage, 14 days): do not reveal pathological changes
- toxicity in mouse intestine ([4]; 14 days daily treatment, up to 4-fold the therapeutic dose): no toxicity was observed in mouse intestine
- immune cell tumor infiltration [5]: significantly increase the number of CD45^+ cells, the ratio of CD4/CD8, and the number of neutrophils and reduce the number of B cells and immunosuppressed tissue associated macrophages (TAM) in tumors
